According to patent US5968910A, “Compositions containing two or three inhibitors of different HIV reverse transcriptases” (priority 1994, dated 1999):
Converted amounts (≈) assume the structure as drawn. Like-named read-outs stand apart in the source and are kept apart here.

How the values were obtained:
HIV-1(IIIB) (WT) = experiment: microbe, parasite or virus in culture; assay type: cell-based; conditions: Human immunodeficiency virus 1, IIIB, CCRF-CEM
Method in brief: (§1)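 CEM cells at 250,000 cells/ml were infected with HIV-1 at 100 CCID50 per ml, then mixed with serial dilutions of test compound. After 4 days at 37° C., cultures were scored for syncytium formation.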

HIV-1(IIIB) = experiment: Knock-out concentrations: breakthrough of HIV-1(IIIB)-induced cytopathicity in CEM cell cultures; assay type: cell-based; conditions: for activity at 0.1 µg/mL / activity at 0.5 µg/mL / activity at 2.5 µg/mL: Human immunodeficiency virus 1, IIIB, CCRF-CEM, read-out: HIV-1-induced cytopathicity in cell culture; for activity at 0.1 µg/mL: 0.1 μg/ml; for activity at 0.5 µg/mL: 0.5 μg/ml; for activity at 2.5 µg/mL: 2.5 μg/ml
Method in brief: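 CEM cells in RPMI 1640 with 10% FBS infected with HIV-1(IIIB) at ~1000× CCID50, subcultured every 3–4 days into fresh uninfected cells with drug held constant for 10 subcultivations (35 days), then ≥5 drug-free passages. Breakthrough scored by syncytium formation. Combinations used the two lowest single-drug starting concentrations.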

[1] = system: HIV-1/TSAO-m^3 T (138-Lys); experiment: Sensitivity of mutant HIV-1 strain in CEM cell cultures; assay type: cell-based; conditions: Human immunodeficiency virus 1, CCRF-CEM; CEM cells, Table 1; read-out: 50% Effective Concentration
Method in brief: as §1

HIV-1/I(0.1) 103-Asn = experiment: as above; assay type: cell-based; conditions: Human immunodeficiency virus 1, CCRF-CEM; Table 5; read-out: EC50
Method in brief: as §1

[2] = system: HIV-1/TIBO R82150 (100-Ile); experiment: as above; assay type: cell-based; conditions: Human immunodeficiency virus 1, CCRF-CEM; CEM cells, Table 1; read-out: 50% Effective Concentration
Method in brief: as §1

[3] = system: HIV-1/V(0.1) 101-Ile + 141-Glu; experiment: as above; assay type: cell-based; conditions: Human immunodeficiency virus 1, CCRF-CEM; Table 5; read-out: EC50
Method in brief: as §1

HIV-1/V(0.5) 103-Asn = experiment: as above; assay type: cell-based; conditions: Human immunodeficiency virus 1, CCRF-CEM; Table 5; read-out: EC50
Method in brief: as §1

HIV-1/II(0.1) 100-Ile = experiment: as above; assay type: cell-based; conditions: Human immunodeficiency virus 1, CCRF-CEM; Table 5; read-out: EC50
Method in brief: as §1

HIV-1/IV(0.1) 103-Thr = experiment: as above; assay type: cell-based; conditions: Human immunodeficiency virus 1, CCRF-CEM; Table 5; read-out: EC50
Method in brief: as §1

HIV-1/Nev (106-Ala) = experiment: as above; assay type: cell-based; conditions: Human immunodeficiency virus 1, CCRF-CEM; CEM cells, Table 1; read-out: 50% Effective Concentration
Method in brief: as §1

[4] = system: HIV-1/TIBO R82913 (103-Asn); experiment: as above; assay type: cell-based; conditions: Human immunodeficiency virus 1, CCRF-CEM; CEM cells, Table 1; read-out: 50% Effective Concentration
Method in brief: as §1

HIV-1/III(0.1) 103-Asn = experiment: as above; assay type: cell-based; conditions: Human immunodeficiency virus 1, CCRF-CEM; Table 5; read-out: EC50
Method in brief: as §1

HIV-1/Pyr (181-Cys) = experiment: as above; assay type: cell-based; conditions: Human immunodeficiency virus 1, CCRF-CEM; CEM cells, Table 1; read-out: 50% Effective Concentration
Method in brief: as §1

HIV-1 RT (WT) = HIV-1 RT (WT) (Human immunodeficiency virus type 1 group M subtype B, UniProt P03366); experiment: biochemical
Method in brief: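 Inhibition read as reduced incorporation of [2,8-³H]dGTP (2.95 μM) into acid-precipitable product on a poly(C).oligo(dG) template/primer (0.1 mM). Recombinant RT, test compounds in 5-fold dilutions; 30 min, 37° C, pH 7.8 Tris buffer with 5 mM Mg2+, 150 mM KCl.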

[5] = 936 h, day 39 post infection, compound absent from day 35
[6] = 1008 h, day 42 post infection, compound absent from day 35
[7] = 1104 h, day 46 post infection, compound absent from day 35
[8] = 1176 h, day 49 post infection, compound absent from day 35
[9] = 1272 h, day 53 post infection, compound absent from day 35

Compound `Cc1occc1C(=S)Nc1ccc(Cl)c(C(=O)OC2CCCC2)c1` [Compound IV] has an EC50 (HIV-1(IIIB) (WT); CEM cells, Table 1, read-out: 50% Effective Concentration) of 0.005 µg/mL (≈ 0.0137 µM), an EC50 (HIV-1(IIIB) (WT); HIV-1 (III8), Table 5, read-out: EC50) of 0.005 µg/mL (≈ 0.0137 µM) and an IC50 (HIV-1(IIIB) (WT); range stated for Compounds I-V together, read-out: 50% inhibitory concentration, HIV-1(IIIB) replication in CEM cells) of 0.004 to 0.05 µg/mL (≈ 0.011 to 0.137 µM). For the same compound, the “prevention of virus breakthrough, fold more efficient than BHAP” value (HIV-1(IIIB)) was “at least 5 fold”, the “prevention of virus breakthrough, fold more efficient than nevirapine” value (HIV-1(IIIB)) was at least 25 fold and the activity at 0.1 µg/mL (HIV-1(IIIB); 96 h, day 4 post infection) was 0%. The activity at 0.5 µg/mL (HIV-1(IIIB); 96 h, day 4 post infection) was 0%, the activity at 2.5 µg/mL (HIV-1(IIIB); 96 h, day 4 post infection) was 0% and the activity at 0.1 µg/mL (HIV-1(IIIB); 192 h, day 8 post infection) was 0%. The activity at 0.5 µg/mL (HIV-1(IIIB); 192 h, day 8 post infection) was 0%, the activity at 2.5 µg/mL (HIV-1(IIIB); 192 h, day 8 post infection) was 0% and the activity at 0.1 µg/mL (HIV-1(IIIB); 264 h, day 11 post infection) was 0%. It also gave an activity at 0.5 µg/mL (HIV-1(IIIB); 264 h, day 11 post infection) of 0%, an activity at 2.5 µg/mL (HIV-1(IIIB); 264 h, day 11 post infection) of 0% and an activity at 0.1 µg/mL (HIV-1(IIIB); 336 h, day 14 post infection) of 6.2%. For the same compound, the activity at 0.5 µg/mL (HIV-1(IIIB); 336 h, day 14 post infection) was 0%, the activity at 2.5 µg/mL (HIV-1(IIIB); 336 h, day 14 post infection) was 0% and the activity at 0.1 µg/mL (HIV-1(IIIB); 408 h, day 17 post infection) was 25%. For the same compound, the activity at 0.5 µg/mL (HIV-1(IIIB); 408 h, day 17 post infection) was 0%, the activity at 2.5 µg/mL (HIV-1(IIIB); 408 h, day 17 post infection) was 0% and the activity at 0.1 µg/mL (HIV-1(IIIB); 504 h, day 21 post infection) was 87.5%. It also gave an activity at 0.5 µg/mL (HIV-1(IIIB); 504 h, day 21 post infection) of 0%, an activity at 2.5 µg/mL (HIV-1(IIIB); 504 h, day 21 post infection) of 0% and an activity at 0.1 µg/mL (HIV-1(IIIB); 600 h, day 25 post infection) of 100%. The activity at 0.5 µg/mL (HIV-1(IIIB); 600 h, day 25 post infection) was 0%, the activity at 2.5 µg/mL (HIV-1(IIIB); 600 h, day 25 post infection) was 0% and the activity at 0.1 µg/mL (HIV-1(IIIB); 672 h, day 28 post infection) was 100%. It also gave an activity at 0.5 µg/mL (HIV-1(IIIB); 672 h, day 28 post infection) of 0%, an activity at 2.5 µg/mL (HIV-1(IIIB); 672 h, day 28 post infection) of 0% and an activity at 0.1 µg/mL (HIV-1(IIIB); 768 h, day 32 post infection) of 100%. It also gave an activity at 0.5 µg/mL (HIV-1(IIIB); 768 h, day 32 post infection) of 0%, an activity at 2.5 µg/mL (HIV-1(IIIB); 768 h, day 32 post infection) of 0% and an activity at 0.1 µg/mL (HIV-1(IIIB); 840 h, day 35 post infection) of 100%. It also gave an activity at 0.5 µg/mL (HIV-1(IIIB); 840 h, day 35 post infection) of 0%, an activity at 2.5 µg/mL (HIV-1(IIIB); 840 h, day 35 post infection) of 0% and an activity at 0.1 µg/mL (HIV-1(IIIB); [5]) of 100%. For the same compound, the activity at 0.5 µg/mL (HIV-1(IIIB); [5]) was 0%, the activity at 2.5 µg/mL (HIV-1(IIIB); [5]) was 0% and the activity at 0.1 µg/mL (HIV-1(IIIB); [6]) was 100%. For the same compound, the activity at 0.5 µg/mL (HIV-1(IIIB); [6]) was 0%, the activity at 2.5 µg/mL (HIV-1(IIIB); [6]) was 0% and the activity at 0.1 µg/mL (HIV-1(IIIB); [7]) was 100%. It also gave an activity at 0.5 µg/mL (HIV-1(IIIB); [7]) of 0%, an activity at 2.5 µg/mL (HIV-1(IIIB); [7]) of 0% and an activity at 0.1 µg/mL (HIV-1(IIIB); [8]) of 100%. It also gave an activity at 0.5 µg/mL (HIV-1(IIIB); [8]) of 0%, an activity at 2.5 µg/mL (HIV-1(IIIB); [8]) of 0% and an activity at 0.1 µg/mL (HIV-1(IIIB); [9]) of 100%. The activity at 0.5 µg/mL (HIV-1(IIIB); [9]) was 0%, the activity at 2.5 µg/mL (HIV-1(IIIB); [9]) was 0% and the “concentration at which virus emerged (virus breakthrough)” value (HIV-1(IIIB); tested at 0.1, 0.5 and 2.5 μg/ml, 35 days) was 0.1 µg/mL. The EC50 [1] was 0.035 µg/mL (≈ 0.0962 µM), the EC50 (HIV-1/I(0.1) 103-Asn) was 0.2 µg/mL (≈ 0.55 µM) and the EC50 [2] was 0.17 µg/mL (≈ 0.467 µM). It also gave an EC50 [3] of 0.11 µg/mL (≈ 0.302 µM), an EC50 (HIV-1/V(0.5) 103-Asn) of 0.65 µg/mL (≈ 1.79 µM) and an EC50 (HIV-1/II(0.1) 100-Ile) of 0.4 µg/mL (≈ 1.1 µM). The EC50 (HIV-1/IV(0.1) 103-Thr) was 0.53 µg/mL (≈ 1.46 µM), the EC50 (HIV-1/Nev (106-Ala)) was 0.04 µg/mL (≈ 0.11 µM) and the EC50 [4] was 0.7 µg/mL (≈ 1.92 µM). For the same compound, the EC50 (HIV-1/III(0.1) 103-Asn) was 0.14 µg/mL (≈ 0.385 µM), the EC50 (HIV-1/Pyr (181-Cys)) was 0.045 µg/mL (≈ 0.124 µM) and the IC50 (HIV-1 RT (WT); range stated for the compounds together, poly(C).oligo(dG), 2.95 μM [2,8-3H]dGTP, read-out: IC50 on recombinant HIV-1 RT) was 49.5 to 212 nM. It also gave an IC50 (HIV-1 RT (WT); substrate [2,8-3H]dGTP 2.95 μM, template poly(rC)oligo(dG), read-out: IC50, anti-HIV-1 RT (WT) activity (converted)) of 49.5 nM.
